Experiments:
[1] = system: thyroid follicular epithelium; experiment: Two week rat study, oral gavage: thyroid findings; type: in vivo, Sprague-Dawley rats
Procedure: The activity of the compounds of Formula I is illustrated through their effects on thyroid function in the rat.
(§1) Sprague-Dawley rats were divided into groups of five males and five females and administered daily by gavage 0, 50, 100, 200, 300, 500, 700 and 1,000 mg/kg/day for two weeks under both fed and fasted conditions. Behavior of the rats was monitored daily while body weight, food consumption and clinical signs were measured weekly. At the termination of the study, rats were bled for clinical chemistry and hematology determinations. After bleeding, rats were sacrificed and necropsied in order that organs could be examined grossly, and tissue specimens were collected for subsequent microscopic examination.

[2] = Two week rat study: clinical chemistry (cholesterol); type: in vivo, Sprague-Dawley rats
Procedure: as §1

thyroid [3] = experiment: Three month rat study, gavage: thyroid histology and thyroid weight; type: in vivo, Sprague-Dawley rats; conditions: for Thyroid follicular cell hyperplasia (incidence), treatment: up to three months, gavage; for Thyroid weight, treatment / Thyroid weight, recovery: mean ± standard deviation; for Thyroid weight, recovery: one month recovery
Procedure: (§2) Collectively, these findings are consistent with drug-induced inhibition of thyroid function and resulting morphological alterations due to compensatory stimulation of increased TSH due to decreased secretion of thyroid hormones.
(§3) For this study Sprague-Dawley rats were divided into groups of 33 males and 33 females and administered by gavage 0, 50 and 200 mg/kg/day of 1,3-dihydro-1-[2-(2-thienyl)ethyl]-2H-imidazole-2-thione in 0.5% aqueous methylcellulose for up to three months. Additional pharmacokinetic study of drug levels was performed by bleeding 3 males and 3 females from each group either 2 or 24 hours posdosing on treatment days 1, 45 and 87. Study parameters included daily observation of behavior; weekly observations of physical condition, food consumption and body weight; and terminal ophthalmoscopic evaluation, serum clinical chemistry, hematology, organ weights, and gross and microscopic tissue examinations.

[4] = Three month rat study, gavage: serum cholesterol; type: in vivo, Sprague-Dawley rats
Procedure: as §2, §3

[5] = system: dopamine beta-hydroxylase; conditions: relative to methimazole analogs with larger 1-alkyl substituents; Fuller et al. 1977; cited from earlier work
thyroid [6] = conditions: Fuller et al. 1977; cited from earlier work
[7] = 200 mg/kg/day, female, P < 0.01 compared to controls

For `S=c1[nH]ccn1CCc1cccs1` [1,3-Dihydro-1-[2-(2-thienyl)ethyl]-2H-imidazole-2-thione], the “Thyroid follicular epithelium findings, lower doses” value ([1]; 100-300 mg/kg/day males, 50-300 mg/kg/day females, two weeks) was “mainly hypertrophic with minimal colloid involution”, the “Thyroid follicular cell findings, high doses” value ([1]; >500 mg/kg/day, two weeks) was “diffuse hyperplasia, hypertrophy, increased mitotic FIGURES, and involution or total absence of luminal colloid” and the “Onset of effect on thyroid follicular epithelium” value ([1]; oral, 50 to 700 mg/kg/day) was “three to four”. For the same compound, the “Effect on thyroid follicular epithelium” value ([1]; oral, 50 to 700 mg/kg/day, two weeks) was “striking effects on the thyroid follicular epithelium”, the “Effect on thyroid gland at high doses” value ([1]; rat, high doses) was “lesions in the thyroid gland and associated clinicopathological findings that indicate thyroid hormone synthesis is reduced or inhibited” and the “Cholesterol level, % of pretest values” ([2]; females, doses >200 mg/kg/day) was “approximately 135%”. For the same compound, the “Cholesterol level, % of pretest values” ([2]; males, doses >500 mg/kg/day) was “approximately 135%”, the “Thyroid follicular cell hyperplasia (incidence), treatment” value (thyroid [3]; 50 mg/kg/day, female) was 7/10 and the “Thyroid weight, treatment” value (thyroid [3]; 50 mg/kg/day, female, P < 0.01 compared to controls) was “.03 ± .01 gm”. For the same compound, the “Thyroid follicular cell hyperplasia (incidence), recovery” value (thyroid [3]; 50 mg/kg/day, female, one month recovery from dosing) was 0/5, the “Thyroid weight, recovery” value (thyroid [3]; 50 mg/kg/day, female) was “.02 ± .00 gm” and the “Thyroid follicular cell hyperplasia (incidence), treatment” value (thyroid [3]; 50 mg/kg/day, male) was 10/10. For the same compound, the “Thyroid weight, treatment” value (thyroid [3]; 50 mg/kg/day, male, P < 0.01 compared to controls) was “.04 ± .01 gm”, the “Thyroid follicular cell hyperplasia (incidence), recovery” value (thyroid [3]; 50 mg/kg/day, male, one month recovery from dosing) was 0/5 and the “Thyroid weight, recovery” value (thyroid [3]; 50 mg/kg/day, male) was “.03 ± .01 gm”. For the same compound, the “Thyroid follicular cell hyperplasia (incidence), treatment” value (thyroid [3]; 200 mg/kg/day, female) was 10/10, the “Thyroid weight, treatment” value (thyroid [3]; [7]) was “.06 ± .03 gm” and the “Thyroid follicular cell hyperplasia (incidence), recovery” value (thyroid [3]; 200 mg/kg/day, female, one month recovery from dosing) was 8/10. For the same compound, the “Thyroid weight, recovery” value (thyroid [3]; [7]) was “.03 ± .01 gm”, the “Thyroid follicular cell hyperplasia (incidence), treatment” value (thyroid [3]; 200 mg/kg/day, male) was 10/10 and the “Thyroid weight, treatment” value (thyroid [3]; 200 mg/kg/day, male, P < 0.01 compared to controls) was “.14 ± .08 gm”. The “Thyroid follicular cell hyperplasia (incidence), recovery” value (thyroid [3]; 200 mg/kg/day, male, one month recovery from dosing) was 0/5, the “Thyroid weight, recovery” value (thyroid [3]; 200 mg/kg/day, male, P < 0.05 compared to controls) was “.05 ± .01 gm” and the “Reversibility of thyroid findings” value (thyroid [3]; one month recovery from dosing) was “nearly completely reversible”. The “Thyroid effects, three month study” value (thyroid [3]; single daily doses of 50 and 200 mg/kg/day) was “profound thyroid effects characterized by thyroid follicular cell hyperplasia, increased thyroid weights and hypercholesteremia”, the “Serum cholesterol, treatment” value ([4]; 50 mg/kg/day, female (control 71)) was 88 mg/dL and the “Serum cholesterol, recovery” value ([4]; 50 mg/kg/day, female, one month recovery (control 66)) was 86 mg/dL. The “Serum cholesterol, treatment” value ([4]; 50 mg/kg/day, male (control 63)) was 81 mg/dL, the “Serum cholesterol, recovery” value ([4]; 50 mg/kg/day, male, one month recovery (control 75)) was 74 mg/dL and the “Serum cholesterol, treatment” value ([4]; 200 mg/kg/day, female (control 71)) was 105 mg/dL. The “Serum cholesterol, recovery” value ([4]; 200 mg/kg/day, female, one month recovery (control 66)) was 76 mg/dL, the “Serum cholesterol, treatment” value ([4]; 200 mg/kg/day, male (control 63)) was 97 mg/dL and the “Serum cholesterol, recovery” value ([4]; 200 mg/kg/day, male, one month recovery (control 75)) was 76 mg/dL.
In the case of `Sc1nccn1C1CCCCC1` [1-cyclohexyl-2-mercaptoimidazole (CHMI), 1-cyclohexyl-2-mercaptoimidazole], the DBH-inhibiting activity [5] is listed as “greatest DBH inhibition” and the Antithyroid activity (thyroid [6]) is listed as “only slight antithyroid activity”.
In the case of `Cn1ccnc1S` [methimazole, 1-methyl-2-mercaptoimidazole], the DBH-inhibiting activity [5] is given as “less pronounced than that of methimazole analogs bearing larger 1-alkyl substituents”.

From US5198457A, “Treatment of hyperthyroidism with 1,3-dihydro-1[2-(2-thienyl)alkyl]-2H-imidazole-2-thiones” (Merrell Dow Pharmaceuticals Inc., priority 1992, dated 1993)
